In brackets after ≈: the same amount, converted by molar mass. Read-outs that look alike come from different tables or passages of the source.
How the values were obtained:
[1] = test system: P. mirabilis IID994; test: In vitro antibacterial activity (MIC, agar dilution); format: cell-based; conditions: Proteus mirabilis, inoculum 10^8 cells/ml
Experimental: (§1) The minimum inhibitory concentration (MIC) of the compound (I) was determined by an agar dilution technique (the standard method of Japan Society of Chemotherapy) against standard strains of gram-positive and gram-negative bacteria.
(§2) Inoculum size: 10^8 cells/ml

[2] = test system: Salmonella enteritidis IID604; test: as above; format: cell-based; conditions: Salmonella enterica
Experimental: as §1, §2

[3] = test system: Citrobacter freundii IID976; test: as above; format: cell-based; conditions: inoculum 10^8 cells/ml
Experimental: as §1, §2

[4] = test system: P. morganii IID602; test: as above; format: cell-based; conditions: Morganella morganii, inoculum 10^8 cells/ml
Experimental: as §1, §2

[5] = test system: S. epidermidis IID866; test: as above; format: cell-based; conditions: Staphylococcus epidermidis, inoculum 10^8 cells/ml
Experimental: as §1, §2

[6] = test system: S. aureus IID670 (Terajima); test: as above; format: cell-based; conditions: Staphylococcus aureus
Experimental: as §1, §2

[7] = test system: Staphylococcus aureus 209P; test: as above; format: cell-based
Experimental: as §1, §2

[8] = test system: Serratia marcescens IID618; test: as above; format: cell-based; conditions: inoculum 10^8 cells/ml
Experimental: as §1, §2

[9] = test system: Haemophilus influenzae IID986; test: as above; format: cell-based
Experimental: as §1, §2

[10] = test system: Proteus vulgaris IFO3167; test: as above; format: cell-based
Experimental: as §1, §2

[11] = test system: S. pyogenes S-8; test: as above; format: cell-based; conditions: Streptococcus pyogenes, S8
Experimental: as §1, §2

[12] = test system: Streptococcus pyogenes IID692; test: as above; format: cell-based
Experimental: as §1, §2

[13] = test system: Klebsiella pneumoniae IFO3512; test: as above; format: cell-based
Experimental: as §1, §2

[14] = test system: Yersinia enterocolitica IID981; test: as above; format: cell-based; conditions: inoculum 10^8 cells/ml
Experimental: as §1, §2

[15] = test system: Alcaligenes faecalis 0104002; test: as above; format: cell-based; conditions: inoculum 10^8 cells/ml
Experimental: as §1, §2

[16] = test system: S. pneumoniae IID552; test: as above; format: cell-based; conditions: Streptococcus pneumoniae
Experimental: as §1, §2

[17] = test system: E. coli ATCC10536; test: as above; format: cell-based; conditions: Escherichia coli
Experimental: as §1, §2

[18] = test system: Enterobacter cloacae IID977; test: as above; format: cell-based; conditions: inoculum 10^8 cells/ml
Experimental: as §1, §2

[19] = test system: Acinetobacter enitratus IID876; test: as above; format: cell-based; conditions: inoculum 10^8 cells/ml
Experimental: as §1, §2

[20] = test system: Pseudomonas aeruginosa V-1; test: as above; format: cell-based; conditions: V1
Experimental: as §1, §2

[21] = test system: Bacillus subtilis PCI 219; test: as above; format: cell-based; conditions: PCI219
Experimental: as §1, §2

[22] = test system: S. faecalis IID682; test: as above; format: cell-based; conditions: Enterococcus faecalis
Experimental: as §1, §2

[23] = test system: E. coli NIHJ JC-2; test: as above; format: cell-based; conditions: Escherichia coli, NIHJJC2
Experimental: as §1, §2

[24] = test system: Shigella sonnei IID969; test: as above; format: cell-based; conditions: inoculum 10^8 cells/ml
Experimental: as §1, §2

[25] = test system: P. aeruginosa IFO12689; test: as above; format: cell-based; conditions: Pseudomonas aeruginosa
Experimental: as §1, §2

[26] = test system: gram-negative bacteria; test: In vitro antibacterial activity against gram-negative bacteria (in words); format: cell-based; conditions: for Antibacterial activity on gram-negative bacteria, in words: in vitro
Experimental: as §1

[27] = test system: Streptococcus spp.; test: In vitro antibacterial activity against Streptococcus spp. (in words); format: cell-based
Experimental: as §1

[28] = test system: gram-positive bacteria; conditions: background; cited from earlier work
[29] = test system: Staphylococcus aureus Smith; test: In vivo antibacterial activity, systemic infection in mice; parameters: species or system mice (male, ICR); conditions: Staphylococcus aureus, 168 h
Experimental: (§3) The in vivo antibacterial activity of the compound (I) was determined in systemic infection in mice. The systemic infections were produced in male mice ICR (body weight, 19±2 g) by inoculating intraperitoneally with Staphylococcus aureus Smith and E. coli ML4707. The compounds were administered orally in divided doses at 0 and 4 hrs. after infection. The therapeutic effect of drugs was judged from the number of mice surviving after 7 days of observation. A comparison of in vivo antibacterial activity was made on the basis of the […] effective dose (ED50) calculated by the method of Litchfield and Wilcoxon.

[30] = test system: E. coli ML4707; test: as above; parameters: species or system mice (male, ICR); conditions: Escherichia coli
Experimental: as §3

[31] = test system: Staphylococcus aureus Smith; test: MIC against the infecting strain (Table 2); format: cell-based
Experimental: as §1

[32] = test system: E. coli ML4707; test: MIC against the infecting strain (Table 2); format: cell-based; conditions: Escherichia coli, ML4707
Experimental: as §1

[33] = test system: gram-positive bacteria; test: In vitro antibacterial activity against gram-positive bacteria (in words); format: cell-based
Experimental: as §1

[34] = test system: gram-negative bacteria; conditions: background; cited from earlier work
[35] = Salmonella enteritidis IID604, inoculum 10^8 cells/ml, read-out: MIC
[36] = S. aureus IID670 (Terajima), inoculum 10^8 cells/ml, read-out: MIC
[37] = Staphylococcus aureus 209P, inoculum 10^8 cells/ml, read-out: MIC
[38] = Proteus vulgaris IFO3167, inoculum 10^8 cells/ml, read-out: MIC
[39] = S. pyogenes S-8, inoculum 10^8 cells/ml, read-out: MIC
[40] = Streptococcus pyogenes IID692, inoculum 10^8 cells/ml, read-out: MIC
[41] = S. pneumoniae IID552, inoculum 10^8 cells/ml, read-out: MIC
[42] = Pseudomonas aeruginosa V-1, inoculum 10^8 cells/ml, read-out: MIC
[43] = Bacillus subtilis PCI 219, inoculum 10^8 cells/ml, read-out: MIC
[44] = S. faecalis IID682, inoculum 10^8 cells/ml, read-out: MIC
[45] = P. aeruginosa IFO12689, inoculum 10^8 cells/ml, read-out: MIC

SMILES | MIC [2, 35] | MIC [6, 36] | MIC [7, 37] | MIC ([9]; Haemophilus influenzae, IID986) | MIC [10, 38] | MIC [11, 39] | MIC [12, 40] | MIC [16, 41] | MIC [20, 42] | MIC [21, 43] | MIC [22, 44] | MIC [24] | MIC [25, 45] | MIC ([13]; Klebsiella pneumoniae, IFO3512) | MIC ([17]; ATCC10536) | MIC [23] | Susceptibility of Streptococcus spp., in words [27] | Activity against most gram-positive bacteria, in words [28] | MIC [32] | Effectiveness in therapy of infections due to gram-negative bacteria, in words [34] | further results
CCn1cc(C(=O)O)c(=O)c2cc(F)c(N3CCNCC3)c(F)c21 [Metabolite, 1-ethyl-6,8-difluoro-1,4-dihydro-4-oxo-7-(1-piperazinyl)quinoline-3-carboxylic acid] | 0.1 µg/mL (≈ 0.296 µM) | 0.78 µg/mL (≈ 2.31 µM) | 0.78 µg/mL (≈ 2.31 µM) | 0.025 µg/mL (≈ 0.0741 µM) | 0.05 µg/mL (≈ 0.148 µM) | 12.5 µg/mL (≈ 37.1 µM) | 3.13 µg/mL (≈ 9.28 µM) | 6.25 µg/mL (≈ 18.5 µM) | 0.78 µg/mL (≈ 2.31 µM) | 0.2 µg/mL (≈ 0.593 µM) | 3.13 µg/mL (≈ 9.28 µM) | 0.05 µg/mL (≈ 0.148 µM) | 1.56 µg/mL (≈ 4.62 µM) | – | – | – | – | – | – | – | MIC [1]: 0.05 µg/mL (≈ 0.148 µM); MIC [3]: 0.1 µg/mL (≈ 0.296 µM); MIC [4]: 0.1 µg/mL (≈ 0.296 µM); MIC [5]: 0.78 µg/mL (≈ 2.31 µM); MIC [8]: 0.1 µg/mL (≈ 0.296 µM); MIC ([13]; Klebsiella pneumoniae IFO3512, inoculum 10^8 cells/ml, read-out: MIC): 0.05 µg/mL (≈ 0.148 µM); MIC [14]: 0.1 µg/mL (≈ 0.296 µM); MIC [15]: 0.78 µg/mL (≈ 2.31 µM); MIC ([17]; E. coli ATCC10536, inoculum 10^8 cells/ml, read-out: MIC): 0.05 µg/mL (≈ 0.148 µM); MIC [18]: 0.1 µg/mL (≈ 0.296 µM); MIC [19]: 0.78 µg/mL (≈ 2.31 µM); MIC ([23]; E. coli NIHJ JC-2, inoculum 10^8 cells/ml, read-out: MIC): 0.05 µg/mL (≈ 0.148 µM); Activity of the metabolite against gram-negative bacteria, in words ([26]; general statement): superior activity against gram-negative bacteria
CCn1cc(C(=O)O)c(=O)c2ccc(C)nc21 [NA, Nalidixic acid] | – | – | – | 1.56 µg/mL (≈ 6.72 µM) | – | – | – | – | – | – | – | 1.56 µg/mL (≈ 6.72 µM) | – | 1.56 µg/mL (≈ 6.72 µM) | 3.13 µg/mL (≈ 13.5 µM) | 3.13 µg/mL (≈ 13.5 µM) | not susceptible | only weak activities against most gram-positive bacteria | 3.13 µg/mL (≈ 13.5 µM) | highly effective in the therapy of infections due to gram-negative bacteria | MIC [2]: 12.5 µg/mL (≈ 53.8 µM); MIC ([6]; IID670): > 100 µg/mL; MIC ([7]; Staphylococcus aureus, 209P): 100 µg/mL (≈ 431 µM); MIC ([10]; Proteus vulgaris, IFO3167): 3.13 µg/mL (≈ 13.5 µM); MIC [11]: > 100 µg/mL; MIC ([12]; Streptococcus pyogenes, IID692): > 100 µg/mL; MIC ([16]; IID552): > 100 µg/mL; MIC ([20]; Pseudomonas aeruginosa): 100 µg/mL (≈ 431 µM); MIC ([21]; Bacillus subtilis): 6.25 µg/mL (≈ 26.9 µM); MIC ([22]; IID682): > 100 µg/mL; MIC ([25]; IFO12689): > 100 µg/mL; ED50 ([29]; po): 635 mg/kg; ED50 ([30]; ML4707, po, 168 h): 38.3 mg/kg; MIC ([31]; Staphylococcus aureus): 25 µg/mL (≈ 108 µM); Antibacterial activity on gram-positive bacteria, in words [33]: inactive on many strains of gram-positive bacteria; Antibacterial activity on gram-negative bacteria, in words [26]: exerted antibacterial activity mainly on gram-negative bacteria
CCn1cc(C(=O)O)c(=O)c2cnc(N3CCNCC3)nc21 [PPA, Pipemidic acid] | 12.5 µg/mL (≈ 41.2 µM) | 25 µg/mL (≈ 82.4 µM) | 25 µg/mL (≈ 82.4 µM) | – | 3.13 µg/mL (≈ 10.3 µM) | > 100 µg/mL | > 100 µg/mL | > 100 µg/mL | 12.5 µg/mL (≈ 41.2 µM) | 6.25 µg/mL (≈ 20.6 µM) | > 100 µg/mL | 1.56 µg/mL (≈ 5.14 µM) | 25 µg/mL (≈ 82.4 µM) | 1.56 µg/mL (≈ 5.14 µM) | 1.56 µg/mL (≈ 5.14 µM) | 1.56 µg/mL (≈ 5.14 µM) | not susceptible | only weak activities against most gram-positive bacteria | 1.56 µg/mL (≈ 5.14 µM) | highly effective in the therapy of infections due to gram-negative bacteria | MIC ([9]; Haemophilus influenzae IID986, inoculum 10^8 cells/ml, read-out: MIC): 3.13 µg/mL (≈ 10.3 µM); ED50 ([29]; mice, oral at 0 and 4 hrs. after infection, challenge 2.4 × 10^5 cells/animal in BHI containing mucin, 7 days survival, read-out: ED50): 231 mg/kg; ED50 ([30]; ML4707, 168 h, mice, oral at 0 and 4 hrs. after infection, challenge 1.2 × 10^7 cells/animal in saline, 7 days survival, read-out: ED50): 38.9 mg/kg; MIC ([31]; Staphylococcus aureus Smith, read-out: MIC): 12.5 µg/mL (≈ 41.2 µM); Antibacterial activity on gram-positive bacteria, in words [33]: inactive on many strains of gram-positive bacteria; Antibacterial activity on gram-negative bacteria, in words [26]: exerted antibacterial activity mainly on gram-negative bacteria
CCn1cc(C(=O)O)c(=O)c2cnc(N3CCCC3)nc21 [piromidic acid] | – | – | – | – | – | – | – | – | – | – | – | – | – | – | – | – | – | only weak activities against most gram-positive bacteria | – | highly effective in the therapy of infections due to gram-negative bacteria | –

— US4429127A, “Quinoline carboxylic acid derivative” (Kyorin Pharmaceutical Co., Ltd., priority 1981, dated 1984)
